Test results reported in patent publication US20080118591A1, “Bactericidal Formulations” (priority 2004, published 2008).

Assays:
E. coli = experiment: Rapid bactericidal activity of liquid wash formulations; type: cell-based; details: in formulation IV, 30 s
Experimental: (§1) A control of each formulation is left un-perfumed. The rapid bactericidal activity of these formulations is then tested as follows: • The products are diluted 1:1 in hard water as defined in the European standard EN 1276. This mimics conditions of use on wet hands or wet surfaces in commonly used water. • 500 μl of the product is mixed with 25 μl of a bacterial inoculum containing 2×10^8 cfu/ml (colony forming units). • The mixture is incubated for 30 seconds at 37° C. • 20 μl of the mixture is removed and added to 180 μl neutralising solution (containing 3 g lecithin, 30 g Tween® 80, 5 g sodium thiosulfate, 1 g histidine, 30 g saponin, 8.5 g sodium chloride, 1 g tryptone and 1000 ml water). • The mixture with neutraliser is incubated for 1 min • Serial dilutions of the mixture with neutralising solution are made, and aliquots of these are added to Petri-dishes and embedded in tryptic soy agar containing 0.5% Tween® 80 to inactivate any residual antibacterial compounds. • Bacterial numbers are counted after 24 h incubation at 37° C. and compared to control samples. • Reduction in bacterial viability is determined as described in example 1
Formulations are tested in a dilution of 1:1 and with 30 seconds contact time to bacteria (E. coli). […]

S. aureus = experiment: as above; type: cell-based; details: in formulation IV, 30 s
Experimental: as §1, with “The above formulations are supplemented with 0.9% (w/v) of the perfume composition A of example 2. A” for “A”
Formulation IV of example 3 is supplemented with different concentrations of phenolic biocides and different concentrations of the perfume composition A of example 2. The reduction in viability of various test organisms is determined at different dilutions of the formulation (1:1 or 1:3 to simulate conditions of use) after 30 seconds contact time.

Structure (SMILES) | rapid bactericidal effect, E. coli 1:1 (E. coli; Biocide 0.2%, Perfume 0%) | rapid bactericidal effect, E. coli 1:3 (E. coli; Biocide 0.2%, Perfume 0%) | rapid bactericidal effect, E. coli 1:1 (E. coli; Biocide 0.2%, Perfume 0.45%) | rapid bactericidal effect, E. coli 1:3 (E. coli; Biocide 0.2%, Perfume 0.45%) | rapid bactericidal effect, E. coli 1:1 (E. coli; Biocide 0.4%, Perfume 0%) | rapid bactericidal effect, E. coli 1:3 (E. coli; Biocide 0.4%, Perfume 0%) | rapid bactericidal effect, E. coli 1:1 (E. coli; Biocide 0.4%, Perfume 0.45%) | rapid bactericidal effect, E. coli 1:3 (E. coli; Biocide 0.4%, Perfume 0.45%) | rapid bactericidal effect, S. aureus conc. (S. aureus; Biocide 0.2%, Perfume 0%) | rapid bactericidal effect, S. aureus conc. (S. aureus; Biocide 0.2%, Perfume 0.45%) | rapid bactericidal effect, S. aureus conc. (S. aureus; Biocide 0.4%, Perfume 0%) | rapid bactericidal effect, S. aureus conc. (S. aureus; Biocide 0.4%, Perfume 0.45%)
Oc1ccc(Cl)cc1Cc1ccccc1 [2-benzyl-4-chlorphenol] | 1 | 1 | >250 | 2 | 18 | 1 | >250 | 4 | 1 | 1 | 3 | 21
Oc1cc(Cl)ccc1Oc1ccc(Cl)cc1Cl [Triclosan, 2,4,4′-trichloro-2′-hydroxy-diphenylether] | 1 | 1 | >250 | 2 |  |  |  |  | 12 | 31 |  | 
